Experimental data taken from patent publication EP0186173A2, “L-Aminodicarboxylic-(0-cycloalkyl)-L-aminocarboxylate alkyl esters, an edible composition containing same as sweeteners and a method for sweetening an edible composition” (GENERAL FOODS CORPORATION, priority 1984, dated 1986).
Where a SMILES comes first, the peptide text is derived from it. The star is where a group is joined. tBu = CC(C)(C)*

Tests used:
[1] = qualitative statement from prior art / literature; cited from earlier work
[2] = Sweetness taste panel: sucrose equivalency, aqueous solutions matched to sucrose standard solutions; details: relative to sucrose
From the text: A taste procedure for determination of sweetness merely involves the determination.of sucrose equivalency. Sucrose equivalence for sweeteners are readily determined. The amount of a sweetener that is equivalent to a given weight percent sucrose can be determined by having a panel of tasters taste solutions of a sweetener at known concentrations and match its sweetness to standard solutionsof sucrose.
The following sensory evaluations were obtained by a panel of experts using known weight percent aqueous solutions of the above compound matched to sucrose standard solutions as previously described.

Row | SMILES | sweetness [1] | sweetness equivalent [2]
1 | COC(=O)[C@H](COC(C)(C)C)NC(=O)[C@@H](N)CC(=O)O [L-aspartyl-0-t,- butyl-L-serine methyl ester] (H-Asp-Ser(tBu)-OMe) | significant sweetness | 
2 | CCC(C)(C)OC[C@H](NC(=O)[C@@H](N)CC(=O)O)C(=O)OC [L-aspartyl-0-t-amyl-L-serine methyl ester] | significant sweetness | 
3 | CCOC(=O)[C@H](COC1(C)CCCC1)NC(=O)[C@@H](N)CC(=O)O [∝-L-Aspartyl-O-(1-methylcyclopentyl)-L-serine ethyl ester] |  | 150 x sucrose
